Measured values taken from ChEMBL document CHEMBL1141299, “Hologram QSAR model for the prediction of human oral bioavailability” (Bioorg Med Chem, 2007).

Test: Oral bioavailability in human
Settings: in vivo

SMILES	bioavailability [%]
C[C@H]1O[C@@H](O[C@H]2[C@@H](O)C[C@H](O[C@H]3[C@@H](O)C[C@H](O[C@H]4CC[C@@]5(C)[C@H](CC[C@@H]6[C@@H]5CC[C@]5(C)[C@@H](C7=CC(=O)OC7)CC[C@]65O)C4)O[C@@H]3C)O[C@@H]2C)C[C@H](O)[C@@H]1O [DIGITOXIN]	88.5
CC(C)C[C@H]1C(=O)N2CCC[C@H]2[C@]2(O)O[C@@](C)(NC(=O)[C@@H]3CC4c5cccc6[nH]cc(c56)C[C@H]4N(C)C3)C(=O)N12 (some centres undefined) [DIHYDROERGOSINE]	10
CC(C)N(CC[C@@](C(N)=O)(c1ccccc1)c1ccccn1)C(C)C [DISOPIRAMIDE]	83
CCCCCc1cc(O)c2c(c1)OC(C)(C)[C@@H]1CCC(C)=C[C@@H]21 [DRONABINOL]	15
C[C@]12C=CC(=O)N[C@@H]1CC[C@@H]1[C@@H]2CC[C@]2(C)[C@@H](C(=O)Nc3cc(C(F)(F)F)ccc3C(F)(F)F)CC[C@@H]12 [DUTASTERIDE]	60
CCC(=O)C(C[C@H](C)N(C)C)(c1ccccc1)c1ccccc1 [ESMETHADONE]	92
CN1CCN(C(=O)O[C@H]2c3nccnc3C(=O)N2c2ccc(Cl)cn2)CC1 [ESZOPICLONE]	80
OCCN1CCN(CCCN2c3ccccc3Sc3ccc(C(F)(F)F)cc32)CC1 [FLUPHENAZINE]	2.7
CC(C)n1c(/C=C/[C@H](O)C[C@H](O)CC(=O)O)c(-c2ccc(F)cc2)c2ccccc21 [FLUVASTATIN]	24
NCC1(CC(=O)O)CCCCC1 [GABAPENTIN]	60
Cc1c(OCC(F)(F)F)ccnc1C[S+]([O-])c1nc2ccccc2[nH]1 (centres undefined) [LANSOPRAZOLE]	80
CCN[C@H](C)Cc1cccc(C(F)(F)F)c1 [LEVOFENFLURAMINE]	89
CCC(=O)C(C[C@@H](C)N(C)C)(c1ccccc1)c1ccccc1 [LEVOMETHADONE]	92
CC[C@H](OC(C)=O)C(C[C@H](C)N(C)C)(c1ccccc1)c1ccccc1 [LEVOMETHADYL ACETATE]	47
CN1C[C@H](CNC(=O)OCc2ccccc2)C[C@@H]2c3cccc4c3c(cn4C)C[C@H]21 [METERGOLINE]	23
CC[C@@H](CO)NC(=O)[C@@H]1C=C2c3cccc4c3c(cn4C)C[C@H]2N(C)C1 [METHYSERGIDE]	13
Cc1ncc2n1-c1ccc(Cl)cc1C(c1ccccc1F)=NC2 [MIDAZOLAM]	40.5
COc1c(N2C[C@@H]3CCCN[C@@H]3C2)c(F)cc2c(=O)c(C(=O)O)cn(C3CC3)c12 [MOXIFLOXACIN]	90
Oc1ccc2c3c1O[C@H]1[C@@H](O)CC[C@@]4(O)[C@@H](C2)N(CC2CCC2)CC[C@]314 [NALBUPHINE]	11
C=CCN1CC[C@]23c4c5ccc(O)c4O[C@H]2C(=O)CC[C@@]3(O)[C@H]1C5 [NALOXONE]	2
O=C1CC[C@@]2(O)[C@H]3Cc4ccc(O)c5c4[C@@]2(CCN3CC2CC2)[C@H]1O5 [NALTREXONE]	20
Cc1ccnc2c1NC(=O)c1cccnc1N2C1CC1 [NEVIRAPINE]	93
COC(=O)C1=C(C)NC(C)=C(C(=O)OC)C1c1ccccc1[N+](=O)[O-] [NIFEDIPINE]	50
O=C1CN=C(c2ccccc2)c2cc([N+](=O)[O-])ccc2N1 [NITRAZEPAM]	78
C[C@H](N)Cc1cccc(C(F)(F)F)c1 [NORDEXFENFLURAMINE]	85

Same assay, conditions: in vivo, F

SMILES	bioavailability [%]
C[C@H]1O[C@@H](O[C@H]2[C@@H](O)C[C@H](O[C@H]3[C@@H](O)C[C@H](O[C@H]4CC[C@@]5(C)[C@H](CC[C@@H]6[C@@H]5C[C@@H](O)[C@]5(C)[C@@H](C7=CC(=O)OC7)CC[C@]65O)C4)O[C@@H]3C)O[C@@H]2C)C[C@H](O)[C@@H]1O [DIGOXIN]	95
COc1ccc([C@@H]2Sc3ccccc3N(CCN(C)C)C(=O)[C@@H]2OC(C)=O)cc1 [DILTIAZEM]	40
COc1cc2nc(N3CCN(C(=O)C4COc5ccccc5O4)CC3)nc(N)c2cc1OC (centres undefined) [DOXAZOSIN]	65
C[C@H]1c2cccc(O)c2C(=O)C2=C(O)[C@]3(O)C(=O)C(C(N)=O)=C(O)[C@@H](N(C)C)[C@@H]3[C@@H](O)[C@@H]21.O [DOXYCYCLINE]	93
Nc1nc(=O)n([C@@H]2CS[C@H](CO)O2)cc1F [EMTRICITABINE]	93
N/N=c1/cc2c(n[nH]1)CCN(C(=O)c1ccccc1)C2 [ENDRALAZINE]	75
CSc1ccc(C(=O)c2[nH]c(=O)[nH]c2C)cc1 [ENOXIMONE]	53
CCN(CC)CC(O)CNC(=O)c1c(OC)c2ccccc2n1-c1ccccc1 (centres undefined) [EPROXINDINE]	70
CC[C@H]1OC(=O)[C@H](C)[C@@H](O[C@H]2C[C@@](C)(OC)[C@@H](O)[C@H](C)O2)[C@H](C)[C@@H](O[C@@H]2O[C@H](C)C[C@H](N(C)C)[C@H]2O)[C@](C)(O)C[C@@H](C)C(=O)[C@H](C)[C@@H](O)[C@]1(C)O [ERYTHROMYCIN]	35
CN(C)CCC[C@@]1(c2ccc(F)cc2)OCc2cc(C#N)ccc21 [ESCITALOPRAM]	80
C[C@H](C(=O)O)c1ccc(-c2ccccc2)c(F)c1 [ESFLURBIPROFEN]	92
COc1ccc2nc([S@@+]([O-])Cc3ncc(C)c(OC)c3C)[nH]c2c1 [ESOMEPRAZOLE]	90
CCCCC(=O)O[C@H]1CC[C@H]2[C@@H]3CCc4cc(O)ccc4[C@H]3CC[C@]12C [ESTRADIOL VALERATE]	3
CC[C@@H](CO)NCCN[C@@H](CC)CO [ETHAMBUTOL]	77
C#C[C@]1(O)CC[C@H]2[C@@H]3CCc4cc(O)ccc4[C@H]3CC[C@@]21C [ETHINYL ESTRADIOL]	40
CC(=O)OCC(CCn1cnc2cnc(N)nc21)COC(C)=O [FAMCICLOVIR]	77
COc1ccc(-c2nc(-c3ccc(F)cc3F)[nH]c2-c2ccc(OC)cc2)cc1 [FENFLUMIZOLE]	50
Cc1onc(-c2c(F)cccc2Cl)c1C(=O)N[C@@H]1C(=O)N2[C@@H]1SC(C)(C)[C@@H]2C(=O)O [FLOXACILLIN]	49
Nc1nc(=O)[nH]cc1F [FLUCYTOSINE]	83.5
CC1(C)O[C@@H]2C[C@H]3[C@@H]4C[C@H](F)C5=CC(=O)C=C[C@]5(C)[C@H]4[C@@H](O)C[C@]3(C)[C@]2(C(=O)CO)O1 [FLUNISOLIDE]	20
C[C@@H]1C[C@H]2[C@@H]3C[C@H](F)C4=CC(=O)C=C[C@]4(C)[C@H]3[C@@H](O)C[C@]2(C)[C@H]1C(=O)CO [FLUOCORTOLONE]	83.5
C[C@@H]1C[C@H]2[C@@H]3C[C@H](F)C4=CC(=O)C=C[C@]4(C)[C@@]3(F)[C@@H](O)C[C@]2(C)[C@@]1(O)C(=O)SCF [FLUTICASONE]	1
COc1cc2ncnc(Nc3ccc(F)c(Cl)c3)c2cc1OCCCN1CCOCC1 [GEFITINIB]	60
CO/N=C1\CN(c2nc3c(cc2F)c(=O)c(C(=O)O)cn3C2CC2)CC1CN (centres undefined) [GEMIFLOXACIN]	71
CCC1=C(C)CN(C(=O)NCCc2ccc(S(=O)(=O)NC(=O)N[C@H]3CC[C@H](C)CC3)cc2)C1=O [GLIMEPIRIDE]	100

SMILES	bioavailability [%]
COc1ccc(Cl)cc1C(=O)NCCc1ccc(S(=O)(=O)NC(=O)NC2CCCCC2)cc1 [GLYBURIDE]	95
O=C(CCCN1CCC(O)(c2ccc(Cl)cc2)CC1)c1ccc(F)cc1 [HALOPERIDOL]	60
NS(=O)(=O)c1cc2c(cc1Cl)NCNS2(=O)=O [HYDROCHLOROTHIAZIDE]	71
CC(=O)[C@]1(O)Cc2c(O)c3c(c(O)c2[C@@H](O[C@H]2C[C@H](N)[C@H](O)[C@H](C)O2)C1)C(=O)c1ccccc1C3=O [IDARUBICIN]	28
CN(C)CCCN1c2ccccc2CCc2ccccc21 [IMIPRAMINE]	42
CCC(C)n1ncn(-c2ccc(N3CCN(c4ccc(OC[C@H]5CO[C@](Cn6cncn6)(c6ccc(Cl)cc6Cl)O5)cc4)CC3)cc2)c1=O (some centres undefined) [ITRACONAZOLE]	55
Nc1ccn([C@@H]2CS[C@H](CO)O2)c(=O)n1 [LAMIVUDINE]	86
N#Cc1ccc(C(c2ccc(C#N)cc2)n2cncn2)cc1 [LETROZOLE]	99.9
C#C[C@]1(O)CC[C@H]2[C@@H]3CCC4=CC(=O)CC[C@@H]4[C@H]3CC[C@@]21CC [LEVONORGESTREL]	87
C=C1c2cccc(O)c2C(=O)C2=C(O)[C@]3(O)C(=O)C(C(N)=O)=C(O)[C@@H](N(C)C)[C@@H]3[C@@H](O)[C@H]12 [METHACYCLINE]	58
Cn1cc[nH]c1=S [METHIMAZOLE]	93
CN(Cc1cnc2nc(N)nc(N)c2n1)c1ccc(C(=O)N[C@@H](CCC(=O)O)C(=O)O)cc1 [METHOTREXATE]	70
C[C@H]1C[C@@H]2[C@H]([C@@H](O)C[C@@]3(C)[C@H]2CC[C@]3(O)C(=O)CO)[C@@]2(C)C=CC(=O)C=C12 [METHYLPREDNISOLONE]	82
CS(=O)(=O)c1ccc2c(c1)N(CCCN1CCC(C(N)=O)CC1)c1ccccc1S2 [METOPIMAZINE]	19
Cc1[nH]c(=O)c(C#N)cc1-c1ccncc1 [MILRINONE]	92
CN(C)c1ccc(O)c2c1C[C@H]1C[C@H]3[C@H](N(C)C)C(O)=C(C(N)=O)C(=O)[C@@]3(O)C(O)=C1C2=O [MINOCYCLINE]	97.5
CCOC(=O)[C@H](CCc1ccccc1)N[C@@H](C)C(=O)N1Cc2cc(OC)c(OC)cc2C[C@H]1C(=O)O [MOEXIPRIL]	13
CC(C)(O)c1ccccc1CC[C@@H](SCC1(CC(=O)O)CC1)c1cccc(/C=C/c2ccc3ccc(Cl)cc3n2)c1 [MONTELUKAST]	73
COc1c(C)c2c(c(O)c1C/C=C(\C)CCC(=O)O)C(=O)OC2 [MYCOPHENOLIC ACID]	72
O=C1CN(/N=C/c2ccc([N+](=O)[O-])o2)C(=O)N1 [NITROFURANTOIN]	87
CNC(=C[N+](=O)[O-])NCCSCc1csc(CN(C)C)n1 [NIZATIDINE]	70
C#C[C@]1(O)CC[C@H]2[C@@H]3CCC4=CC(=O)CC[C@@H]4[C@H]3CC[C@@]21C [NORETHINDRONE]	64
CNC/C=C(\c1ccc(Br)cc1)c1cccnc1 [NORZIMELIDINE]	66
CCCc1nc(C(C)(C)O)c(C(=O)O)n1Cc1ccc(-c2ccccc2-c2nnn[nH]2)cc1 [OLMESARTAN]	26
